Experimental data reported in PubChem BioAssay AID248 (DTP/NCI, 2004).
Several values for one entry are separate records, joined by “and”; a condition that tells them apart may be missing. Equal entries are not always repeated. Inconclusive results and toxic doses are left out. No stated cut-off is given here; in the data, active means T/C of 150% or more; inactive means T/C below 125%.

System: L1210 leukemia ip in BDF1 mice, survival T/C
Assay: NCI In Vivo Anticancer Drug Screen. Data for tumor model L1210 Leukemia (intraperitoneal) in B6D2F1 (BDF1) mice
Details: endpoint: mean survival time, higher = longer survival
Procedure, shortened: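 In this screen, tumor-bearing mice given compound are compared to those given vehicle, and their survival values are reported as a treated-to-control quotient.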

[1] = dose: 50.0 mg/kg/injection, schedule: Q04DX002 (ip), vehicle: saline
[2] = dose: 100.0 mg/kg/injection, schedule: Q04DX002 (ip), vehicle: saline
[3] = dose: 100.0 mg/kg/injection, schedule: Q04DX003 (ip), vehicle: saline with Tween-80
[4] = dose: 200.0 mg/kg/injection, schedule: Q04DX003 (ip), vehicle: saline with Tween-80
[5] = dose: 400.0 mg/kg/injection, schedule: Q04DX003 (ip), vehicle: saline with Tween-80
[6] = dose: 10.0 mg/kg/injection, schedule: Q01DX009 (ip), vehicle: saline
[7] = dose: 100.0 mg/kg/injection, schedule: Q04DX003 (ip), vehicle: Klucel (hydroxypropylcellulose) (HPC)
[8] = dose: 200.0 mg/kg/injection, schedule: Q04DX003 (ip), vehicle: Klucel (hydroxypropylcellulose) (HPC)
[9] = dose: 400.0 mg/kg/injection, schedule: Q04DX003 (ip), vehicle: Klucel (hydroxypropylcellulose) (HPC)
[10] = dose: 100.0 mg/kg/injection, schedule: Q01DX009 (ip), vehicle: saline with Tween-80
[11] = dose: 100.0 mg/kg/injection, schedule: Q01DX001 (ip), vehicle: saline
[12] = dose: 200.0 mg/kg/injection, schedule: Q01DX001 (ip), vehicle: saline
[13] = dose: 400.0 mg/kg/injection, schedule: Q01DX001 (ip), vehicle: saline
[14] = dose: 100.0 mg/kg/injection, schedule: Q04DX002 (ip), vehicle: Klucel (hydroxypropylcellulose) (HPC)
[15] = dose: 200.0 mg/kg/injection, schedule: Q04DX002 (ip), vehicle: Klucel (hydroxypropylcellulose) (HPC)
[16] = dose: 400.0 mg/kg/injection, schedule: Q04DX002 (ip), vehicle: Klucel (hydroxypropylcellulose) (HPC)
[17] = dose: 100.0 mg/kg/injection, schedule: Q01DX009 (ip), vehicle: Klucel (hydroxypropylcellulose) (HPC)
[18] = dose: 200.0 mg/kg/injection, schedule: Q01DX009 (ip), vehicle: Klucel (hydroxypropylcellulose) (HPC)

Measured: T/C

Cc1cn(C2CC(O)C(COP(=O)(N3CC3)N3CC3)O2)c(=O)[nH]c1=O (centres undefined)
inactive: [1] 107 % of control | [2] 100 % of control | dose: 200.0 mg/kg/injection, schedule: Q04DX002 (ip), vehicle: saline 94 % of control

[N-]=[N+]=NC(=O)c1cccc2c1Cc1ccccc1-2
inactive: [3] 96 % of control | [4] 86 % of control | [5] 96 % of control

Brc1ccc(N2N=NC3CNCC32)cc1 (centres undefined)
inactive: [3] 92 % of control | [4] 105 % of control | [5] 94 % of control

CCOCCOCCCNCc1cnc2nc(N)nc(N)c2n1
inactive: [6] 97 % of control | dose: 20.0 mg/kg/injection, schedule: Q01DX009 (ip), vehicle: saline 103 % of control | dose: 40.0 mg/kg/injection, schedule: Q01DX009 (ip), vehicle: saline 103 % of control

CNCCc1ccc(OC)c(OC)c1
inactive: dose: 25.0 mg/kg/injection, schedule: Q04DX002 (ip), vehicle: saline 104 % of control | [1] 107 % of control | [2] 96 % of control

COc1ccc(N(Cc2ccccc2)c2nn[nH]n2)cc1
inactive: [7] 93 % of control | [8] 90 % of control | [9] 97 % of control

C=C(Br)CNC(=O)NCC(=C)Br
inactive: [10] 105 % of control | dose: 200.0 mg/kg/injection, schedule: Q01DX009 (ip), vehicle: saline with Tween-80 100 % of control | dose: 400.0 mg/kg/injection, schedule: Q01DX009 (ip), vehicle: saline with Tween-80 105 % of control

Cc1ccc(S(=O)(=O)N/N=C2/CC3CCC(C)(C2)C3)cc1 (centres undefined)
inactive: dose: 12.5 mg/kg/injection, schedule: Q04DX003 (ip), vehicle: saline with Tween-80 100 % of control | dose: 25.0 mg/kg/injection, schedule: Q04DX003 (ip), vehicle: saline with Tween-80 98 % of control | dose: 50.0 mg/kg/injection, schedule: Q04DX003 (ip), vehicle: saline with Tween-80 93 % of control

C=C1C(=O)OC2C1CCC(=C)C1CC(O)C(=C)C12 (centres undefined)
inactive: dose: 67.0 mg/kg/injection, schedule: Q01DX009 (ip), vehicle: saline with Tween-80 103 % of control | [10] 105 % of control

CC(C(=O)O)S(=O)(=O)Cc1ccccc1 (centres undefined)
inactive: [11] 94 % of control | [12] 97 % of control | [13] 100 % of control

Nc1cc(C(=O)Nc2ccc(C3=NCCCN3)cc2)ccc1C(=O)Nc1ccc(C2=NCCCN2)cc1
inactive: dose: 7.5 mg/kg/injection, schedule: Q01DX Z (oral), vehicle: saline 97 % of control | dose: 15.0 mg/kg/injection, schedule: Q01DX Z (ip), vehicle: saline 93 % of control | dose: 15.0 mg/kg/injection, schedule: Q01DX Z (oral), vehicle: saline 96 % of control | dose: 30.0 mg/kg/injection, schedule: Q01DX Z (oral), vehicle: saline 97 % of control | dose: 60.0 mg/kg/injection, schedule: Q01DX Z (oral), vehicle: saline 103 % of control

O=C(OCCCCCCCOC(=O)c1ccc([N+](=O)[O-])cc1)c1ccc([N+](=O)[O-])cc1
inactive: dose: 100.0 mg/kg/injection, schedule: Q01DX001 (ip), vehicle: other 101 % of control | dose: 200.0 mg/kg/injection, schedule: Q01DX001 (ip), vehicle: other 96 % of control | dose: 400.0 mg/kg/injection, schedule: Q01DX001 (ip), vehicle: other 95 % of control

O=C(O)c1cc(Br)c(C(=O)O)cc1Br
inactive: [11] 100 % of control | [12] 102 % of control | [13] 96 % of control

FC(F)(F)S.[Hg]
inactive: dose: 5.0 mg/kg/injection, schedule: Q01DX009 (ip), vehicle: saline 86 % of control | [6] 93 % of control

O=C(Nc1cccc([N+](=O)[O-])c1)c1ccc(C(=O)Nc2cccc([N+](=O)[O-])c2)cc1
inactive: [14] 98 % of control | [15] 91 % of control | [16] 86 % of control

COc1cc(OCc2ccccc2)c([N+](=O)[O-])cc1OC
inactive: dose: 100.0 mg/kg/injection, schedule: Q04DX003 (ip), vehicle: saline 116 % of control | dose: 200.0 mg/kg/injection, schedule: Q04DX003 (ip), vehicle: saline 124 % of control | dose: 400.0 mg/kg/injection, schedule: Q04DX003 (ip), vehicle: saline 112 % of control

c1ccc(-c2cc3c(nn2)[nH]c2ccccc23)cc1
inactive: [14] 105 % of control | [15] 97 % of control | [16] 87 % of control

O=C(OC1(c2ccccc2)OC(=O)c2ccccc21)c1ccccc1C(=O)c1ccccc1 (centres undefined)
inactive: [3] 92 % of control | [4] 91 % of control

COC(=O)C(C)(N)Cc1ccc(O)c(C)c1 (centres undefined)
inactive: [17] 96 % of control | [7] 108 % of control | [18] 100 % of control | [8] 101 % of control | [9] 95 % of control

S=C(CC(C(=S)N1CCOCC1)N1CCOCC1)N1CCOCC1 (centres undefined)
inactive: dose: 25.6 mg/kg/injection, schedule: Q04DX002 (ip), vehicle: saline with Tween-80 98 % of control | dose: 64.0 mg/kg/injection, schedule: Q04DX002 (ip), vehicle: saline with Tween-80 102 % of control | [3] 98 % of control | dose: 160.0 mg/kg/injection, schedule: Q04DX002 (ip), vehicle: saline with Tween-80 87 % of control | [4] 104 % of control | dose: 400.0 mg/kg/injection, schedule: Q04DX002 (ip), vehicle: saline with Tween-80 98 % of control | [5] 101 % of control

CCOC(=O)Nc1cc(NC(C)CCCN(CC)CC)c2nc(-c3ccccc3)c(-c3ccccc3)nc2n1 (centres undefined)
inactive: dose: 50.0 mg/kg/injection, schedule: Q01DX001 (ip), vehicle: saline 93 % of control | [11] 90 % of control

Nc1cc2[nH]cnc2c(Br)n1
inactive: dose: 100.0 mg/kg/injection, schedule: Q04DX003 (ip), vehicle: water 116 % of control | dose: 200.0 mg/kg/injection, schedule: Q04DX003 (ip), vehicle: water 116 % of control | dose: 400.0 mg/kg/injection, schedule: Q04DX003 (ip), vehicle: water 102 % of control

O=c1cc(-c2ccc(Cl)cc2)oc(-c2ccc(Cl)cc2)c1
inactive: dose: 50.0 mg/kg/injection, schedule: Q01DX009 (ip), vehicle: Klucel (hydroxypropylcellulose) (HPC) 94 % of control | [17] 93 % of control | [7] 89 % of control | [8] 92 % of control

COc1cccc(-c2nc3ccccc3s2)c1OC
inactive: dose: 25.0 mg/kg/injection, schedule: Q04DX003 (ip), vehicle: DMSO 88 % of control | dose: 50.0 mg/kg/injection, schedule: Q04DX003 (ip), vehicle: DMSO 95 % of control | dose: 100.0 mg/kg/injection, schedule: Q04DX003 (ip), vehicle: DMSO 92 % of control and 96 % of control

O=C(O)C(=C/c1ccccc1)/C(=C\c1ccccc1)C(=O)O
inactive: [11] 103 % of control | dose: 100.0 mg/kg/injection, schedule: Q01DX009 (ip), vehicle: saline 89 % of control | [12] 105 % of control | dose: 200.0 mg/kg/injection, schedule: Q01DX009 (ip), vehicle: saline 93 % of control | [13] 97 % of control | dose: 400.0 mg/kg/injection, schedule: Q01DX009 (ip), vehicle: saline 90 % of control

COc1ccc(/C=C/c2cnc3ccccc3n2)cc1OC
inactive: [17] 91 % of control | [7] 98 % of control | [18] 100 % of control | [8] 93 % of control | dose: 400.0 mg/kg/injection, schedule: Q01DX009 (ip), vehicle: Klucel (hydroxypropylcellulose) (HPC) 92 % of control | [9] 97 % of control
